Test results from the supplement of paper PMC4862054.
Values joined by “and” are separate entries in the source; they are usually repeats but may differ in a detail not shown here. Identical values can stand only once.

Key:
HDQ-P1 [1] = test: normalised viability (% of control), CellTiter-Blue; higher = more viable cells (about 100 = DMSO control); details: incubation time: 72 h
Procedure, shortened: (§1)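 Each value is normalised viability at a single listed concentration of the series. Breast cancer cell lines in 384-well plates were incubated 72 h with compound and read by CellTiter-Blue fluorescence at 560/590 nm, with vehicle set to 100 and a positive kill control to 0 on every plate.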

CAL-85-1 [2] = test: as above; details: incubation time: 72 h
Procedure, shortened: as §1

DU-4475 [3] = test: as above; details: incubation time: 72 h
Procedure, shortened: as §1

MDA-MB-231 [4] = test: as above; details: incubation time: 72 h
Procedure, shortened: as §1

Hs578T [5] = details: 72 h
Method: (§2)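 Drug sensitivity and resistance testing (DSRT) of breast cancer cell lines in 384-well plates, 5 concentrations in 10-fold dilutions over a compound-specific 10,000-fold range. After 72 h, cytotoxicity was read by CellTox Green fluorescence and viability by CellTiter-Glo luminescence (multiplexed), normalised to DMSO and benzethonium chloride controls. EC50 is the inflection point of the fitted dose-response curve (bottom asymptote free, so it can be relative for partial curves) and is censored at the highest tested concentration. Rows with DSS 0 (no meaningful response) were excluded.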

MDA-MB-453 = details: 72 h
Method: as §2

CAL-51 [6] = details: 72 h
Method: as §2

CAL-148 [7] = details: 72 h
Method: as §2

MDA-MB-436 [8] = details: 72 h
Method: as §2

HCC1599 [9] = details: 72 h
Procedure, shortened: (§3)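 Rows with a drug sensitivity score of zero were dropped, and EC50 was taken from the fitted percent-inhibition dose-response curve, censored at the highest concentration. Data were normalised on each plate to vehicle and a positive kill control and checked by Z'-factor. The assay seeded breast cancer cell lines in 20 µl onto 384-well plates pre-loaded with compound in 5 µl medium for 72 h, then added 2.5 µl CellTiter-Blue for 2 h at 37 °C and read fluorescence at 560/590 nm.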

HCC1937 = details: 72 h
Procedure, shortened: as §3

Hs578T [10] = details: 72 h; remark: listed apart in the source
Procedure, shortened: as §3

HCC1143 [11] = details: 72 h
Procedure, shortened: as §3

CAL-120 [12] = details: 72 h
Procedure, shortened: as §3

SK-BR-3 = details: 72 h
Procedure, shortened: as §3

MDA-MB-468 = details: 72 h
Procedure, shortened: as §3

BT-474 = details: 72 h
Procedure, shortened: as §3

MDA-MB-436 [13] = details: 72 h; remark: listed apart in the source
Procedure, shortened: as §3

MFM-223 [14] = details: 72 h
Procedure, shortened: as §3

MDA-MB-231 [15] = details: 72 h
Procedure, shortened: as §3

BT-549 [16] = details: 72 h
Procedure, shortened: as §3

HCC1599 [17] = details: 72 h; remark: listed apart in the source
Procedure, shortened: (§4)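 Breast cancer cell lines in 20 µl suspension were added to 384-well plates already holding compound at 5 concentrations, spaced in 10-fold steps across a compound-specific 10,000-fold range, and incubated for 72 h. CellTox Green fluorescence (485/520 nm) was read first to measure cell death, followed by CellTiter-Glo luminescence for viability after 10 min at room temperature. Each plate was normalised to 0.1 % DMSO and a positive kill control. EC50 values came from dose-response curve fits and were censored at the top concentration.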

HCC1143 [18] = details: 72 h; remark: listed apart in the source
Procedure, shortened: as §4

CAL-148 [19] = details: 72 h; remark: listed apart in the source
Procedure, shortened: as §4

DU-4475 [20] = details: 72 h
Procedure, shortened: as §4

MFM-223 [21] = details: 72 h; remark: listed apart in the source
Procedure, shortened: as §4

HDQ-P1 [22] = details: 72 h
Procedure, shortened: as §3

CAL-51 [23] = details: 72 h; remark: listed apart in the source
Procedure, shortened: as §3

CAL-148 [24] = details: 72 h; remark: listed apart in the source
Procedure, shortened: as §3

CAL-85-1 [25] = details: 72 h
Procedure, shortened: as §3

DU-4475 [26] = details: 72 h; remark: listed apart in the source
Procedure, shortened: as §3

MCF-10A = details: 72 h
Method: as §2

CAL-120 [27] = details: 72 h; remark: listed apart in the source
Method: as §2

MDA-MB-231 [28] = details: 72 h; remark: listed apart in the source
Method: as §2

HDQ-P1 [29] = details: 72 h; remark: listed apart in the source
Procedure, shortened: as §4

MFM-223 [30] = details: 72 h; remark: listed apart in the source
Method: as §2

BT-549 [31] = details: 72 h; remark: listed apart in the source
Method: as §2

Q: `Cc1ccc(NC(=O)c2ccc(CN3CCN(C)CC3)cc2)cc1Nc1nccc(-c2cccnc2)n1` [Imatinib] was tested. Which normalised viability (HDQ-P1 [1]; 30 nM) did it give?
A: 89.2% and 107%

Q: And the normalised viability (CAL-85-1 [2]; 30 nM)?
A: 91.2% and 88%

Q: What about the normalised viability (DU-4475 [3]; 30 nM) of the same compound?
A: 104% and 85.4%

Q: What about the normalised viability (MDA-MB-231 [4]; 1000 nM) of the same compound?
A: 92.1% and 110%

Q: And the “EC50, CellTox Green” value (Hs578T [5])?
A: > 10000 nM

Q: And the “EC50, CellTox Green” value (MDA-MB-453)?
A: 2820 nM

Q: Which results are given for `CN(C)CCN1C(=O)c2cccc3cc(N)cc(c23)C1=O` [Amonafide]?
A: normalised viability (HDQ-P1 [1]; 30 nM): 104%; normalised viability (CAL-85-1 [2]; 30 nM): 79.8%; normalised viability (DU-4475 [3]; 30 nM): 83.2%; normalised viability (MDA-MB-231 [4]; 1000 nM): 67.8%; EC50, CellTox Green (CAL-51 [6]): 6260 nM; EC50, CellTox Green (CAL-148 [7]): 6190 nM; EC50, CellTox Green (MDA-MB-436 [8]): 44.4 nM; EC50, CellTiter-Blue viability (HCC1599 [9]): 9620 nM; EC50, CellTiter-Blue viability (HCC1937): 1110 nM; EC50, CellTiter-Blue viability (Hs578T [10]): 9380 nM; EC50, CellTiter-Blue viability (HCC1143 [11]): 3710 nM; EC50, CellTiter-Blue viability (CAL-120 [12]): 3370 nM; EC50, CellTiter-Blue viability (SK-BR-3): 5740 nM; EC50, CellTiter-Blue viability (MDA-MB-468): 6670 nM; EC50, CellTiter-Blue viability (BT-474): > 10000 nM; EC50, CellTiter-Blue viability (MDA-MB-436 [13]): 2760 nM; EC50, CellTiter-Blue viability (MFM-223 [14]): 7280 nM; EC50, CellTiter-Blue viability (MDA-MB-231 [15]): 2240 nM; EC50, CellTiter-Blue viability (BT-549 [16]): 9680 nM; EC50, CellTiter-Glo (HCC1599 [17]): > 10000 nM; EC50, CellTiter-Glo (HCC1143 [18]): 3330 nM; EC50, CellTiter-Glo (CAL-148 [19]): 4300 nM; EC50, CellTiter-Glo (DU-4475 [20]): 3300 nM; EC50, CellTiter-Glo (MFM-223 [21]): 7400 nM; EC50, CellTiter-Blue viability (HDQ-P1 [22]): 9740 nM; EC50, CellTiter-Blue viability (CAL-51 [23]): 3320 nM; EC50, CellTiter-Blue viability (CAL-148 [24]): 1830 nM; EC50, CellTiter-Blue viability (CAL-85-1 [25]): 4450 nM; EC50, CellTiter-Blue viability (DU-4475 [26]): 3240 nM

Q: How did the “EC50, CellTox Green” value (Hs578T [5]) turn out when `CC(C)c1c(C(=O)Nc2ccccc2)c(-c2ccccc2)c(-c2ccc(F)cc2)n1CC[C@@H](O)C[C@@H](O)CC(=O)O` [Atorvastatin] was run?
A: 3780 nM

Q: And the “EC50, CellTox Green” value (CAL-51 [6])?
A: 668 nM

Q: What about the “EC50, CellTox Green” value (MCF-10A) of the same compound?
A: 1940 nM

Q: And the “EC50, CellTox Green” value (CAL-120 [27])?
A: 9010 nM

Q: And the “EC50, CellTox Green” value (MDA-MB-453)?
A: > 10000 nM

Q: And the “EC50, CellTox Green” value (MDA-MB-231 [28])?
A: 796 nM

Q: And the “EC50, CellTiter-Glo” value (HDQ-P1 [29])?
A: 1250 nM

Q: And the “EC50, CellTiter-Glo” value (HCC1143 [18])?
A: 2030 nM

Q: Which normalised viability (HDQ-P1 [1]; 300 nM) does the source give for `Cc1cc2c(C(C)C)c(O)c(O)c(C=O)c2c(O)c1-c1c(C)cc2c(C(C)C)c(O)c(O)c(C=O)c2c1O` [Gossypol] here?
A: 141%

Q: What about the normalised viability (CAL-85-1 [2]; 300 nM) of the same compound?
A: 87.3%

Q: And the normalised viability (DU-4475 [3]; 300 nM)?
A: 93.9%

Q: What about the normalised viability (MDA-MB-231 [4]; 10000 nM) of the same compound?
A: 22.8%

Q: Which results are given for `O=C(O)CCCc1ccc(N(CCCl)CCCl)cc1` [Chlorambucil]?
A: normalised viability (HDQ-P1 [1]; 30 nM): 94.1%; normalised viability (CAL-85-1 [2]; 30 nM): 92.7%; normalised viability (DU-4475 [3]; 30 nM): 92%; normalised viability (MDA-MB-231 [4]; 1000 nM): 109%; EC50, CellTox Green (MDA-MB-436 [8]): > 10000 nM; EC50, CellTiter-Blue viability (HCC1937): 731 nM; EC50, CellTiter-Blue viability (MDA-MB-468): 5340 nM

Q: How did the normalised viability (HDQ-P1 [1]; 3 nM) turn out when `CO[C@H]1C[C@@H]2CC[C@@H](C)[C@@](O)(O2)C(=O)C(=O)N2CCCC[C@H]2C(=O)O[C@H]([C@H](C)C[C@@H]2CC[C@@H](OCCO)[C@H](OC)C2)CC(=O)[C@H](C)/C=C(\C)[C@@H](O)[C@@H](OC)C(=O)[C@H](C)C[C@H](C)/C=C/C=C/C=C/1C` [Everolimus] was run?
A: 71.3% and 59.9%

Q: What about the normalised viability (CAL-85-1 [2]; 3 nM) of the same compound?
A: 63.9% and 54%

Q: And the normalised viability (MDA-MB-231 [4]; 100 nM)?
A: 48.1% and 68.9%

Q: And the “EC50, CellTox Green” value (MFM-223 [30])?
A: 8.31 nM

Q: What about the “EC50, CellTox Green” value (BT-549 [31]) of the same compound?
A: > 100 nM

Q: What about the “EC50, CellTiter-Blue viability” value (HCC1599 [9]) of the same compound?
A: 11.8 nM

Q: And the “EC50, CellTiter-Blue viability” value (HCC1937)?
A: 2.95 nM

Q: And the “EC50, CellTiter-Blue viability” value (Hs578T [10])?
A: 0.13 nM

Q: And the “EC50, CellTiter-Blue viability” value (HCC1143 [11])?
A: 0.14 nM

Q: And the “EC50, CellTiter-Blue viability” value (CAL-120 [12])?
A: 0.304 nM

Q: And the “EC50, CellTiter-Blue viability” value (SK-BR-3)?
A: 0.945 nM

Q: What about the “EC50, CellTiter-Blue viability” value (BT-474) of the same compound?
A: 0.289 nM

Q: What about the “EC50, CellTiter-Blue viability” value (MFM-223 [14]) of the same compound?
A: 0.27 nM

Q: What about the “EC50, CellTiter-Blue viability” value (MDA-MB-231 [15]) of the same compound?
A: 26.9 nM

Q: What about the “EC50, CellTiter-Blue viability” value (BT-549 [16]) of the same compound?
A: 0.381 nM

Q: And the “EC50, CellTiter-Glo” value (HDQ-P1 [29])?
A: 5.68 nM

Q: And the “EC50, CellTiter-Glo” value (HCC1143 [18])?
A: 0.39 nM

Q: What about the “EC50, CellTiter-Glo” value (CAL-148 [19]) of the same compound?
A: 0.38 nM

Q: What about the “EC50, CellTiter-Glo” value (DU-4475 [20]) of the same compound?
A: 1.24 nM

Q: And the “EC50, CellTiter-Glo” value (MFM-223 [21])?
A: 0.29 nM

Q: And the “EC50, CellTiter-Blue viability” value (HDQ-P1 [22])?
A: 0.35 nM

Q: And the “EC50, CellTiter-Blue viability” value (CAL-51 [23])?
A: 1.14 nM

Q: What about the “EC50, CellTiter-Blue viability” value (CAL-148 [24]) of the same compound?
A: 0.675 nM

Q: What about the “EC50, CellTiter-Blue viability” value (CAL-85-1 [25]) of the same compound?
A: 0.219 nM

Q: What about the “EC50, CellTiter-Blue viability” value (DU-4475 [26]) of the same compound?
A: 2.34 nM

Q: With `CNNCc1ccc(C(=O)NC(C)C)cc1` [Procarbazine] as the compound, how does the normalised viability (HDQ-P1 [1]; 30 nM) read?
A: 103%

Q: What about the normalised viability (CAL-85-1 [2]; 30 nM) of the same compound?
A: 87.4%

Q: What about the normalised viability (DU-4475 [3]; 30 nM) of the same compound?
A: 107%

Q: And the normalised viability (MDA-MB-231 [4]; 1000 nM)?
A: 119%
